From patent US20250034159A1, “INHIBITORS OF EPIDERMAL GROWTH FACTOR RECEPTOR” (ORIC Pharmaceuticals, Inc., priority 2021, published 2025)
Where two headings read alike, the source gives them in different places.

How the values were obtained:
BaF3_EGFR d19/CS cells = assay: Biological Activity Assay D: BaF3 cell proliferation assay, EGFR exon 19 deletion/C797S (BaF3 d19/CS); format: cell-based; settings: Ba/F3 EGFR, read-out: BaF3 d19/CS IC50
Ba/F3_EGFR WT cells = assay: Biological Activity Assay D: BaF3 cell proliferation assay, EGFR wild-type (BaF3 WT); format: cell-based; settings: Ba/F3 EGFR, read-out: BaF3 WT IC50
[1] = target: recombinant human EGFR L858R/C797S double mutant protein (Homo sapiens (Human), UniProt P00533, C797S/L858R); assay: Biological Activity Assay B: biochemical assay against EGFR L858R/C797S protein (EGFR LR/CS)
Sequence of recombinant human EGFR L858R/C797S double mutant protein (P00533 25-1210 C797S/L858R): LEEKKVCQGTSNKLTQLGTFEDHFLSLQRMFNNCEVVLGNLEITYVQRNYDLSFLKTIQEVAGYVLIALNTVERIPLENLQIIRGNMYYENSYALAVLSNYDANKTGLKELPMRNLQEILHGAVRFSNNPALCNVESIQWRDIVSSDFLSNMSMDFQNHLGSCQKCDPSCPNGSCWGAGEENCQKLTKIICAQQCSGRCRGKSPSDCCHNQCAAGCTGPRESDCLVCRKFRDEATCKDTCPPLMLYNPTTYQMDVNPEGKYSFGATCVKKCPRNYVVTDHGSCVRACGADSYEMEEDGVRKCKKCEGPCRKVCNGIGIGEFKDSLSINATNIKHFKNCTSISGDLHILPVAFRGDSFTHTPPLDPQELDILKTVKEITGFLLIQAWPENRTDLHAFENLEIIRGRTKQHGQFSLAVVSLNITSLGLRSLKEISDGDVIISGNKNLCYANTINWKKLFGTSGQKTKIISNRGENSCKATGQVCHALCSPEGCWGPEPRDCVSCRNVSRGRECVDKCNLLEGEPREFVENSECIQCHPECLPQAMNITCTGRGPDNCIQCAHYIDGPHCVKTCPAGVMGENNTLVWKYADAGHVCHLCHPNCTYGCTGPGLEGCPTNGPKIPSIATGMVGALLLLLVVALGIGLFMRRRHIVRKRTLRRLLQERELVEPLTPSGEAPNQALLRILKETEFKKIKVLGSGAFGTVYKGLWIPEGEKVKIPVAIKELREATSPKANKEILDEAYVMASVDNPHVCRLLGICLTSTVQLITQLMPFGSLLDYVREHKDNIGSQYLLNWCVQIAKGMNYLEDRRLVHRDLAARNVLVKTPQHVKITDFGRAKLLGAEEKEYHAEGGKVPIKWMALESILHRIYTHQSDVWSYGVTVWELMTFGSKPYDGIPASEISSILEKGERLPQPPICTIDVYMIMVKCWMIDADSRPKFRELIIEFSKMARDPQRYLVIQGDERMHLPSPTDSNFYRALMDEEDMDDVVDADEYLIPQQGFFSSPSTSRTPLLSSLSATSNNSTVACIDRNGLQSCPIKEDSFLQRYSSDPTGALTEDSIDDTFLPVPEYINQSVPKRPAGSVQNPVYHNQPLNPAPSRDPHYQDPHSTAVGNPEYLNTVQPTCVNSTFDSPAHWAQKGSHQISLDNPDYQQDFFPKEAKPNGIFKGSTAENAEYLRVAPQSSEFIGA
Summary of the method: (§1)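 Compounds were tested as 16-point serial dilutions (final DMSO 2.5%) with a Phosphosens peptide sensor/ATP working solution (40 uM/4 mM). The signal was read kinetically over 90 cycles at 120 s intervals. IC50s came from 4-parameter fits of per-well slopes.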

[2] = target: recombinant human EGFR exon 19 deletion/C797S double mutant protein (Homo sapiens (Human), UniProt P00533, C797S/DEL746-750); assay: Biological Activity Assay C: biochemical assay against EGFR exon 19 deletion/C797S protein (EGFR d19/CS)
Sequence of recombinant human EGFR exon 19 deletion/C797S double mutant protein (P00533 other isoform, or with tags, fused parts or gaps C797S/del 1-668/del 746-750 limits assumed): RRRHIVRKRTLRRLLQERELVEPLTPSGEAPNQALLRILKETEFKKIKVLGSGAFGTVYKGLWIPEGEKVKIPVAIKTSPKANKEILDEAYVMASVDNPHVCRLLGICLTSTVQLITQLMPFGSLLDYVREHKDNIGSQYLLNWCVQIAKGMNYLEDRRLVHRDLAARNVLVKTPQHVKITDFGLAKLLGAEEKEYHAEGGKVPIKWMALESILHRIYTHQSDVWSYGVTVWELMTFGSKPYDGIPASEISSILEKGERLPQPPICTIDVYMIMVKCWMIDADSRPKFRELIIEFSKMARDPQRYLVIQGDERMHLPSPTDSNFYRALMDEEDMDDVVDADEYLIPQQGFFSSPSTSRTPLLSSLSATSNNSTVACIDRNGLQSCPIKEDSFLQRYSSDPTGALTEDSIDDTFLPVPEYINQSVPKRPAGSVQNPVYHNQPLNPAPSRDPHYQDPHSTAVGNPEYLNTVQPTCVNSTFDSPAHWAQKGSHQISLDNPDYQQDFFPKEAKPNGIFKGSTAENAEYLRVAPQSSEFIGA
Summary of the method: as §1

BaF3_EGFR LR/CS cells = assay: Biological Activity Assay D: BaF3 cell proliferation assay, EGFR L858R/C797S mutant (BaF3 LR/CS); format: cell-based; settings: Ba/F3 EGFR, read-out: BaF3 LR/CS IC50
[3] = BaF3_EGFR d19/CS cells, ~72 hours, CellTiter-Glo
[4] = Ba/F3_EGFR WT cells, ~72 hours, CellTiter-Glo
[5] = BaF3_EGFR LR/CS cells, ~72 hours, CellTiter-Glo

Structure (SMILES) | IC50 (BaF3_EGFR d19/CS cells; [3]) | IC50 (Ba/F3_EGFR WT cells; [4]) | IC50 [1] | IC50 [2] | IC50 (BaF3_EGFR LR/CS cells; [5]) | IC50 (BaF3_EGFR d19/CS cells; 72 h) | IC50 (Ba/F3_EGFR WT cells; 72 h) | IC50 (BaF3_EGFR LR/CS cells; 72 h)
Fc1ccc(-c2nn(CC3COC3)cc2-c2ncnc3oc(-c4ccccc4)cc23)cc1 [Example 47, 4-{3-(4-Fluorophenyl)-1-[(oxetan-3-yl)methyl]-1H-pyrazol-4-yl}-6-phenylfuro[2,3-d]pyrimidine] | 0.0725 µM | 4.53 µM | 0.000594 µM | 0.000473 µM | 0.0925 µM | – | – | –
NC(=O)CCc1nc(-c2ccc(F)cc2)c(-c2ncnc3oc(-c4ccccc4)cc23)o1 [Example 49, 3-[4-(4-fluorophenyl)-5-(6-phenylfuro[2,3-d]pyrimidin-4-yl)-1,3-oxazol-2-yl]propanamide] | 0.25 µM | 20 µM | 0.00342 µM | 0.00177 µM | 0.132 µM | – | – | –
CN(C)S(=O)(=O)CCn1cc(-c2ncnc3oc(-c4ccccc4)cc23)c(-c2ccc(F)cc2)n1 [Example 50, 2-[3-(4-fluorophenyl)-4-(6-phenylfuro[2,3-d]pyrimidin-4-yl)-1H-pyrazol-1-yl]-N,N-dimethylethane-1-sulfonamide] | 0.0592 µM | 2.08 µM | 0.000635 µM | 0.00102 µM | 0.241 µM | – | – | –
CN(C)S(=O)(=O)n1cc(-c2ncnc3oc(-c4ccccc4)cc23)c(-c2ccc(F)cc2)n1 [Example 51, 3-(4-fluorophenyl)-N,N-dimethyl-4-(6-phenylfuro[2,3-d]pyrimidin-4-yl)-1H-pyrazole-1-sulfonamide] | 0.972 µM | 10.7 µM | 0.0171 µM | 0.0272 µM | 0.77 µM | – | – | –
O=S1(=O)CC(CCn2cc(-c3ncnc4oc(-c5ccccc5)cc34)c(-c3ccc(F)cc3)n2)C1 [Example 52, 3-{2-[3-(4-Fluorophenyl)-4-(6-phenylfuro[2,3-d]pyrimidin-4-yl)-1H-pyrazol-1-yl]ethyl}-1λ6-thietane-1,1-dione] | 0.0208 µM | 1.94 µM | 0.000307 µM | 0.000368 µM | 0.106 µM | – | – | –
O[C@H]1C[C@H](Cn2ncc(-c3ncnc4oc(-c5ccccc5)cc34)c2-c2ccc(F)cc2)C1 [Example 54, (1r,3r)-3-{[5-(4-fluorophenyl)-4-(6-phenylfuro[2,3-d]pyrimidin-4-yl)-1H-pyrazol-1-yl]methyl}cyclobutan-1-ol] | 0.837 µM | 8.86 µM | 0.0158 µM | 0.0201 µM | 0.992 µM | – | – | –
CS(=O)(=O)CCCn1cc(-c2ncnc3oc(-c4ccccc4)cc23)c(-c2ccc(F)cc2)n1 [Example 55, 4-{3-(4-Fluorophenyl)-1-[3-(methanesulfonyl)propyl]-1H-pyrazol-4-yl}-6-phenylfuro[2,3-d]pyrimidine] | 0.0214 µM | 1.28 µM | 0.000247 µM | 0.00029 µM | 0.0785 µM | – | – | –
CS(=O)(=O)n1ncc(-c2ncnc3oc(-c4ccccc4)cc23)c1-c1ccc(F)cc1 [Example 56, 4-[5-(4-fluorophenyl)-1-(methanesulfonyl)-1H-pyrazol-4-yl]-6-phenylfuro[2,3-d]pyrimidine] | 0.184 µM | 5.49 µM | 0.00358 µM | 0.00458 µM | 0.224 µM | – | – | –
CC(C)(O)CCc1nc(-c2ccc(F)cc2)c(-c2ncnc3oc(-c4ccccc4)nc23)o1 [Example 57, 4-[4-(4-fluorophenyl)-5-(2-phenyl[1,3]oxazolo[5,4-d]pyrimidin-7-yl)-1,3-oxazol-2-yl]-2-methylbutan-2-ol] | 1.29 µM | 7.39 µM | 0.0168 µM | 0.0103 µM | 0.689 µM | – | – | –
CC(O)Cn1cc(-c2ncnc3oc(-c4ccccc4)cc23)c(-c2ccc(F)cc2)n1 (stereo not drawn) [Example 58, 1-[3-(4-Fluorophenyl)-4-(6-phenylfuro[2,3-d]pyrimidin-4-yl)-1H-pyrazol-1-yl]propan-2-ol] | – | – | 0.000349 µM | 0.000177 µM | – | 0.0437 µM | 2.1 µM | 0.0582 µM
CC1(Cn2cc(-c3ncnc4oc(-c5ccccc5)cc34)c(-c3ccc(F)cc3)n2)COC1 [Example 59, 4-{3-(4-fluorophenyl)-1-[(3-methyloxetan-3-yl)methyl]-1H-pyrazol-4-yl}-6-phenylfuro[2,3-d]pyrimidine] | 0.213 µM | 5.95 µM | 0.00127 µM | 0.000752 µM | 0.236 µM | – | – | –
Fc1ccc(-c2n[nH]cc2-c2ncnc3oc(-c4ccccc4)cc23)cc1 [Example 60, 4-[3-(4-Fluorophenyl)-1H-pyrazol-4-yl]-6-phenylfuro[2,3-d]pyrimidine] | 0.119 µM | 2.27 µM | 0.000526 µM | 0.000419 µM | 0.0883 µM | – | – | –
